Values after ≈ are worked out from the molar mass of the structure shown. Like-named read-outs stand apart in the source and are kept apart here.
What was measured:
M. abscessus (MABSC) = assay: MIC against CF isolates (Example 7, Table 18); assay type: cell-based, Mycobacterium abscessus complex; settings: Mycobacteroides abscessus
S. aureus ATCC 29213 = settings: per CLSI M100-S24 or provided by Microbion; cited from earlier work
C. difficile = assay: Agar dilution MIC, anaerobes (Example 5); assay type: cell-based, Clostridium difficile; settings: Clostridioides difficile, read-out: MIC
E. faecium = assay: Broth microdilution MIC (Example 5); assay type: cell-based; settings: E. faecium MMX 485; VRE vanA
Procedure: (§1) Test and Comparator Agents: The test agents were stored at room temperature until assayed. […] The stock solutions were allowed to stand for at least 1 hr prior to use to auto-sterilize.
(§2) TestMedia: Test media were prepared and stored in accordance with guidelines from CLSI (4, 6, 7).
(§3) Broth Microdilution MC Testing (Aerobic Bacteria and Yeast): The broth microdilution assay method employed for the susceptibility testing of aerobic bacteria (excluding N. gonorrhoeae which was evaluated by agar dilution) and yeast essentially followed the procedures described by CLSI (3, 4, 7, 8) and employed automated liquid handlers to conduct serial dilutions and liquid transfers. […] These would become the ‘mother plates’ from which ‘daughter’ or test plates would be prepared. The drugs (300 μL at 40× the desired top concentration in the test plates) were dispensed into the appropriate well in Column 1 of the mother plates. The Biomek 2000 was used to make serial two-fold dilutions through Column 11 in the “mother plate”. The wells of Column 12 contained no drug and ultimately served as the organism growth control wells.
(§4) The daughter plates were prepared using the Biomek FX which transferred 5 μL of drug solution from each well of a mother plate to the corresponding well of the correct daughter plate in a single step.
(§5) A standardized inoculum of each organism was prepared per CLSI methods (3, 7). Isolated colonies of each test isolate were picked from the primary plate and a suspension was prepared to equal a 0.5 McFarland turbidity standard. Standardized suspensions were then diluted […] (1:100 for yeast, 1:20 for bacteria). After dilution, the inoculum suspensions were then transferred to compartments of sterile reservoirs divided by length (Beckman Coulter), and the Biomek 2000 was used to inoculate all plates. Daughter plates were placed on the Biomek 2000 in reverse orientation so that plates were inoculated from low to high drug concentration.
(§6) The Biomek 2000 delivered 10 μL of standardized inoculum into each well of the appropriate daughter plate for an additional 1:20 dilution.
(§7) Plates were stacked 4 high, covered with a lid on the top plate, placed into plastic bags, and incubated at 35° C. for approximately 24-48 hr for all yeast isolates and 16-24 hr for aerobic bacteria. Plates were viewed from the bottom using a plate viewer. […] MIC endpoints for the test agents and control compounds were read per CLSI criteria (3, 7).

B. fragilis = assay: Agar dilution MIC, anaerobes (Example 5); assay type: cell-based; settings: Bacteroides fragilis, ATCC25285; B. fragilis MMX 123 (ATCC 25285); QC; read-out: MIC
S. pneumoniae [1] = settings: S. pneumoniae MMX 6837 (ATCC 49619); cited from earlier work
Actinomyces turicensis = assay: MIC of baseline clinical isolates (Example 8); assay type: cell-based; settings: Actinomyces turicensis baseline isolates (N′ = 1), central laboratory, mITT
Procedure: (§8) Microbiology was assessed on Day 1 and at the time of any subsequent surgical procedure at the index site. Samples were collected from the infected bone site or involved tissue adjacent to any implant(s), swabs of the deep infection site, and the superficial tissue/wound closure/sinus tract site. […] Parallel sets of samples were analyzed by the local clinical site laboratory to guide patient antibiotic treatment.

Peptoniphilus gorbachii = assay: MIC of baseline clinical isolates (Example 8); assay type: cell-based; settings: Peptoniphilus gorbachii baseline isolates (N′ = 1), central laboratory, mITT
Procedure: as §8

Anaerococcus murdochii = assay: MIC of baseline clinical isolates (Example 8); assay type: cell-based; settings: Anaerococcus murdochii baseline isolates (N′ = 1), central laboratory, mITT
Procedure: as §8

Clostridium sphenoides = assay: MIC of baseline clinical isolates (Example 8); assay type: cell-based; settings: Clostridium sphenoides baseline isolates (N′ = 1), central laboratory, mITT
Procedure: as §8

[2] = tested on: non-speciated Anaerococcus; assay: MIC of baseline clinical isolates (Example 8); assay type: cell-based; settings: Anaerococcus non-speciated baseline isolates (N′ = 1), central laboratory, mITT
Procedure: as §8

F. magna = assay: MIC of baseline clinical isolates (Example 8); assay type: cell-based; settings: Finegoldia magna baseline isolates (N′ = 4), central laboratory, mITT
Procedure: as §8

[3] = tested on: Cutibacterium [Propionibacterium] acnes; assay: MIC of baseline clinical isolates (Example 8); assay type: cell-based; settings: Cutibacterium (Proprionibacterium) acnes baseline isolates (N′ = 3), central laboratory, mITT
Procedure: as §8

[4] = tested on: Corynebacterium amycolatum; assay: MIC of baseline clinical isolates (Example 8); assay type: cell-based; settings: Corynebacterium amycolatum baseline isolates (N′ = 1), central laboratory, mITT
Procedure: (§9) Microbiology was assessed on Day 1 and at the time of any subsequent surgical procedure at the index site. Samples were collected from the infected bone site or involved tissue adjacent to any implant(s), swabs of the deep infection site, and the superficial tissue/wound closure/sinus tract site. Isolation and identification of aerobic and anerobic bacteria was conducted at a central microbiology laboratory (IHMA, Schaumburg, IL) and susceptibility of the isolates to MBN-101 (BisEDT) and comparator agents was performed per Clinical and Laboratory Standards Institute (CLSI). Parallel sets of samples were analyzed by the local clinical site laboratory to guide patient antibiotic treatment.

[5] = tested on: non-speciated Corynebacterium; assay: MIC of baseline clinical isolates (Example 8); assay type: cell-based; settings: Corynebacterium non-speciated baseline isolates (N′ = 2), central laboratory, mITT
Procedure: as §9

Corynebacterium jeikeium = assay: MIC of baseline clinical isolates (Example 8); assay type: cell-based; settings: Corynebacterium jeikeium baseline isolates (N′ = 2), central laboratory, mITT
Procedure: as §9

Streptococcus oralis = assay: MIC of baseline clinical isolates (Example 8); assay type: cell-based; settings: Streptococcus oralis baseline isolates (N′ = 1), central laboratory, mITT
Procedure: as §9

[6] = tested on: Corynebacterium resistens; assay: MIC of baseline clinical isolates (Example 8); assay type: cell-based; settings: Corynebacterium resistens baseline isolates (N′ = 1), central laboratory, mITT
Procedure: as §9

Dermabacter hominis = assay: MIC of baseline clinical isolates (Example 8); assay type: cell-based; settings: Dermabacter hominis baseline isolates (N′ = 1), central laboratory, mITT
Procedure: as §9

S. pyogenes = assay: Broth microdilution MIC (Example 5); assay type: cell-based
Procedure: as §1, §2, §3, §4, §5, §6, §7

S. pneumoniae [7] = assay: Broth microdilution MIC (Example 5); assay type: cell-based
Procedure: as §1, §2, §3, §4, §5, §6, §7

S. agalactiae = assay: Broth microdilution MIC (Example 5); assay type: cell-based
Procedure: as §1, §2, §3, §4, §5, §6, §7

CC[C@H]1OC(=O)[C@H](C)[C@@H](O[C@H]2C[C@@](C)(OC)[C@@H](O)[C@H](C)O2)[C@H](C)[C@@H](O[C@@H]2O[C@H](C)C[C@H](N(C)C)[C@H]2O)[C@](C)(OC)C[C@@H](C)C(=O)[C@H](C)[C@@H](O)[C@]1(C)O [Clarithromycin, reference compound]
MIC (M. abscessus (MABSC); strain AMT0068-40, M abscessus/massiliense complex): 1 µg/mL (≈ 1.34 µM) | MIC (M. abscessus (MABSC); strain AMT0119-7, M abscessus/massiliense complex): 1 µg/mL (≈ 1.34 µM) | MIC, acceptable range (S. aureus ATCC 29213): 0.12 to 0.5 µg/mL | MIC, expected results (S. aureus ATCC 29213): 0.25 µg/mL (≈ 0.334 µM)

CCC[C@@H]1C[C@@H](C(=O)N[C@@H]([C@H]2O[C@H](SC)[C@H](O)[C@@H](O)[C@H]2O)[C@H](C)Cl)N(C)C1 [Clindamycin]
MIC (C. difficile; ATCC700057, C. difficile MMX 4381 (ATCC 700057), QC, CCI): 4 µg/mL (≈ 9.41 µM) | MIC (C. difficile; C. difficile MMX 8272, ribotype 255, CCI): 4 µg/mL (≈ 9.41 µM) | MIC (C. difficile; C. difficile MMX 8279, ribotype 005, CCR): > 64 µg/mL | MIC (C. difficile; C. difficile MMX 8281, ribotype 010, CCR): > 64 µg/mL | MIC (C. difficile; NCTC13307, C. difficile MMX 5681 (NCTC 13307), ribotype 012, CCR): > 64 µg/mL | MIC (C. difficile; NCTC13336, C. difficile MMX 5680 (NCTC 13336), ribotype 027, CCI METR): 4 µg/mL (≈ 9.41 µM) | MIC (E. faecium): >32 µg/mL | MIC (B. fragilis): 1 µg/mL (≈ 2.35 µM)

CC[C@H]1OC(=O)[C@H](C)[C@@H](O[C@H]2C[C@@](C)(OC)[C@@H](O)[C@H](C)O2)[C@H](C)[C@@H](O[C@@H]2O[C@H](C)C[C@H](N(C)C)[C@H]2O)[C@](C)(O)C[C@@H](C)C(=O)[C@H](C)[C@@H](O)[C@]1(C)O [Erythromycin]
CLSI QC range of MIC (S. pneumoniae [1]): (0.03-0.12) μg/mL | MIC (E. faecium): >64 µg/mL

CCN1CCN(C(=O)N[C@@H](C(=O)N[C@@H]2C(=O)N3[C@@H]2SC(C)(C)[C@@H]3C(=O)O)c2ccccc2)C(=O)C1=O.C[C@]1(Cn2ccnn2)[C@H](C(=O)O)N2C(=O)C[C@H]2S1(=O)=O [TZP]
Mean MIC (Actinomyces turicensis): 1.00 µg/mL | n (% resistant) (Actinomyces turicensis): 0 (0.0) n (%) | Mean MIC (Peptoniphilus gorbachii): 0.03 µg/mL | n (% resistant) (Peptoniphilus gorbachii): 0 (0.0) n (%) | Mean MIC (Anaerococcus murdochii): 0.50 µg/mL | n (% resistant) (Anaerococcus murdochii): 0 (0.0) n (%) | Mean MIC (Clostridium sphenoides): 16.00 µg/mL | n (% resistant) (Clostridium sphenoides): 0 (0.0) n (%) | n (% resistant) [2]: 0 (0.0) n (%) | Mean MIC (F. magna): 0.34 µg/mL | n (% resistant) (F. magna): 0 (0.0) n (%) | Mean MIC [3]: 0.29 µg/mL | n (% resistant) [3]: 0 (0.0) n (%) | Mean MIC [4]: 1.00 µg/mL | n (% resistant) [4]: 0 (0.0) n (%) | Mean MIC [5]: 1.00 µg/mL | n (% resistant) [5]: 0 (0.0) n (%) | Mean MIC (Corynebacterium jeikeium): 1.00 µg/mL | n (% resistant) (Corynebacterium jeikeium): 0 (0.0) n (%) | Mean MIC (Streptococcus oralis): 0.06 µg/mL | n (% resistant) (Streptococcus oralis): 0 (0.0) n (%) | Mean MIC [6]: 1.00 µg/mL | n (% resistant) [6]: 0 (0.0) n (%) | Mean MIC (Dermabacter hominis): 0.50 µg/mL | n (% resistant) (Dermabacter hominis): 0 (0.0) n (%)

Penicillin
CLSI QC range of MIC (S. pneumoniae [1]): (0.25-1) μg/mL | MIC (S. pyogenes; S. pyogenes MMX 3068, EryR): ≤0.008 µg/mL | MIC (S. pyogenes; S. pyogenes MMX 3820, ERYR CLIR): ≤0.008 µg/mL | MIC (S. pyogenes; S. pyogenes MMX 3919, ERYR): ≤0.008 µg/mL | MIC (S. pyogenes; S. pyogenes MMX 3929, ERYR CCR): ≤0.008 µg/mL | MIC (S. pyogenes; S. pyogenes MMX 5091, ERYR CCR): ≤0.008 µg/mL | MIC (S. pneumoniae [7]; S. pneumoniae MMX 880, LevR SXTR CCR EryR PenR): 2 µg/mL | MIC (S. pneumoniae [7]; S. pneumoniae MMX 937, MemR SXTR CCR EryR PenR): 4 µg/mL | MIC (S. pneumoniae [7]; S. pneumoniae MMX 3959, CCR EryR): 0.12 µg/mL | MIC (S. pneumoniae [7]; S. pneumoniae MMX 5440, MemR SXTR CCR EryR PenR): 4 µg/mL | MIC (S. pneumoniae [7]; S. pneumoniae MMX 5445, MemR SXTR CCR EryR PenR): 4 µg/mL | MIC (S. pneumoniae [7]; S. pneumoniae MMX 6837 (ATCC 49619), QC): 0.25 µg/mL | MIC (S. pneumoniae [7]; S. pneumoniae MMX 8133, MemR SXTR CCR EryR PenR): 4 µg/mL | MIC (S. agalactiae; S. agalactiae MMX 3741, ERYR CCR): 0.03 µg/mL | MIC (S. agalactiae; S. agalactiae MMX 3743, ERYR CCR): 0.06 µg/mL | MIC (S. agalactiae; S. agalactiae MMX 4077, ERYR CCR): 0.06 µg/mL | MIC (S. agalactiae; S. agalactiae MMX 4079, ERYR CCR PenR MEMR): 2 µg/mL | MIC (S. agalactiae; S. agalactiae MMX 4086, ERYR CCR): 0.06 µg/mL

From patent US20240285571A1, “METHODS OF TREATING BONE INFECTIONS” (MICROBION CORPORATION, priority 2020, published 2024)
